Reference: patent publication US20180368410A1, “MICROBIOCIDAL OXADIAZOLE DERIVATIVES” (SYNGENTA PARTICIPATIONS AG, priority 2015, published 2018)

Columns and labels:
[1] = test system: Puccinia recondita f. Sp. Tritici; test: Puccinia recondita f. sp. tritici / wheat / leaf disc preventative (brown rust); type: in vivo, Puccinia recondita f. sp. tritici on wheat cv. Kanzler; conditions: foliar, 200 ppm in the applied formulation, inoculated 1 day after application, assessed 7 to 9 days after application, vs untreated control leaf disks, read-out: disease control
Procedure: Leaf disks or leaf segments of various plant species are cut from plants grown in a greenhouse. The cut leaf disks or segments are placed in multiwell plates (24-well format) onto water agar. The leaf disks are sprayed with a test solution before (preventative) or after (curative) inoculation. Compounds to be tested are prepared as DMSO solutions (max. 10 mg/ml) which are diluted to the appropriate concentration with 0.025% Tween20 just before spraying. The inoculated leaf disks or segments are incubated under defined conditions (temperature, relative humidity, light, etc.) according to the respective test system. A single evaluation of disease level is carried out 3 to 14 days after inoculation, depending on the pathosystem. Percent disease control relative to the untreated check leaf disks or segments is then calculated. Wheat leaf segments cv. Kanzler were placed on agar in multiwell plates (24-well format) and sprayed with the formulated test compound diluted in water. The leaf disks were inoculated with a spore suspension of the fungus 1 day after application. The inoculated leaf segments were incubated at 19′C and 75% relative humidity (rh) under a light regime of 12 hours light/12 hours darkness in a climate cabinet and the activity of a compound was assessed as percent disease control compared to untreated when an appropriate level of disease damage appears in untreated check leaf segments (7 to 9 days after application). The following compounds at 200 ppm in the applied formulation give at least 80% disease control in this test when compared to untreated control leaf disks under the same conditions, which show extensive disease development.

[2] = test system: Glomerella Lacenarium (Colletotrichum lacenarium); test: Glomerella lagenarium (Colletotrichum lagenarium) liquid culture / cucumber / preventative (anthracnose); type: cell-based; conditions: 20 ppm in the applied formulation, liquid culture in PDB, 24° C., inhibition of growth measured photometrically 3 to 4 days after application, vs untreated control, read-out: disease control
Procedure: Mycelia fragments or conidia suspensions of a fungus prepared either freshly from liquid cultures of the fungus or from cryogenic storage, are directly mixed into nutrient broth. DMSO solutions of the test compound (max. 10 mg/ml) are diluted with 0.025% Tween20 by a factor of 50 and 10 μl of this solution is pipetted into a microtiter plate (96-well format). The nutrient broth containing the fungal spores/mycelia fragments is then added to give an end concentration of the tested compound. The test plates are incubated in the dark at 24° C. and 96% relative humidity. The inhibition of fungal growth is determined photometrically after 2 to 7 days, depending on the pathosystem, and percent antifungal activity relative to the untreated check is calculated.
Conidia of the fungus from cryogenic storage are directly mixed into nutrient broth (PDB—potato dextrose broth). After placing a (DMSO) solution of test compound into a microtiter plate (96-well format), the nutrient broth containing the fungal spores is added. The test plates are incubated at 24° C. and the inhibition of growth is measured photometrically 3 to 4 days after application.
The following compounds at 20 ppm in the applied formulation give at least 80% disease control in this test when compared to untreated control under the same conditions, which show extensive disease development.

[3] = test system: Puccinia recondita f. Sp. Triticil; test: Puccinia recondita f. sp. tritici / wheat / leaf disc curative (brown rust); type: in vivo, Puccinia recondita f. sp. tritici on wheat cv. Kanzler; conditions: foliar, 200 ppm in the applied formulation, applied 1 day after inoculation, assessed 6 to 8 days after application, vs untreated control leaf disks, read-out: disease control
Procedure: (§1) Leaf disks or leaf segments of various plant species are cut from plants grown in a greenhouse. The cut leaf disks or segments are placed in multiwell plates (24-well format) onto water agar. The leaf disks are sprayed with a test solution before (preventative) or after (curative) inoculation. Compounds to be tested are prepared as DMSO solutions (max. 10 mg/ml) which are diluted to the appropriate concentration with 0.025% Tween20 just before spraying. The inoculated leaf disks or segments are incubated under defined conditions (temperature, relative humidity, light, etc.) according to the respective test system. A single evaluation of disease level is carried out 3 to 14 days after inoculation, depending on the pathosystem. Percent disease control relative to the untreated check leaf disks or segments is then calculated.
Wheat leaf segments cv. Kanzler are placed on agar in multiwell plates (24-well format). The leaf segments are then inoculated with a spore suspension of the fungus. Plates were stored in darkness at 19° C. and 75% relative humidity. The formulated test compound diluted in water was applied 1 day after inoculation. The leaf segments were incubated at 19° C. and 75% relative humidity under a light regime of 12 hours light/12 hours darkness in a climate cabinet and the activity of a compound was assessed as percent disease control compared to untreated when an appropriate level of disease damage appears in untreated check leaf segments (6 to 8 days after application).
(§2) The following compounds at 200 ppm in the applied formulation give at least 80% disease control in this test when compared to untreated control leaf disks under the same conditions, which show extensive disease development.

Phakopsora pachyrhizi = Phakopsora pachyrhizi / soybean / leaf disc preventative (Asian soybean rust); type: in vivo, Phakopsora pachyrhizi on soybean; conditions: foliar, 200 ppm in the applied formulation, inoculated one day after application, assessed 12 to 14 days after application, vs untreated control leaf disks, read-out: disease control
Procedure: as §1
Soybean leaf disks are placed on water agar in multiwell plates (24-well format) and sprayed with the formulated test compound diluted in water. One day after application leaf discs are inoculated by spraying a spore suspension on the lower leaf surface. After an incubation period in a climate cabinet of 24-36 hours in darkness at 20° C. and 75% rh leaf disc are kept at 20° C. with 12 h light/day and 75% rh. The activity of a compound is assessed as percent disease control compared to untreated when an appropriate level of disease damage appears in untreated check leaf disks (12 to 14 days after application).
as §2

With `CC1CC1C(=O)NCc1ccc(-c2noc(C(F)(F)F)n2)cn1` (centres unmarked) [Compound 1.89, 2-methyl-N-[[5-[5-(trifluoromethyl)-1,2,4-oxadiazol-3-yl]-2-pyridyl]methyl] cyclopropanecarboxamide] the pest or weed control at 200 ppm [1] was ≥ 80%, the inhibition of growth at 20 ppm [2] was ≥ 80% and the pest or weed control at 200 ppm [3] was ≥ 80%.
`CC1(C(=O)NCc2ccc(-c3noc(C(F)(F)F)n3)cn2)CC1` [Compound 1.90, 1-methyl-N-[[5-[5-(trifluoromethyl)-1,2,4-oxadiazol-3-yl]-2-pyridyl]methyl] cyclopropanecarboxamide] was tested, and the pest or weed control at 200 ppm [1] was ≥ 80%, the inhibition of growth at 20 ppm [2] was ≥ 80% and the pest or weed control at 200 ppm [3] was ≥ 80%.
`CC1(C(=O)NCCc2ccc(-c3noc(C(F)(F)F)n3)cc2)CC1` [Compound 1.103, 1-methyl-N-[2-[4-[5-(trifluoromethyl)-1,2,4-oxadiazol-3-yl]phenyl]ethyl] cyclopropanecarboxamide] was tested, and the pest or weed control at 200 ppm [1] was ≥ 80%, the inhibition of growth at 20 ppm [2] was ≥ 80% and the pest or weed control at 200 ppm (Phakopsora pachyrhizi) was ≥ 80%.
In the case of `O=C(NCc1ccc(-c2noc(C(F)(F)F)n2)cn1)C1CC1(F)F` (centres unmarked) [Compound 1.86, 2,2-difluoro-N-[[5-[5-(trifluoromethyl)-1,2,4-oxadiazol-3-yl]-2-pyridyl]methyl] cyclopropanecarboxamide], the pest or weed control at 200 ppm [1] was ≥ 80%, the inhibition of growth at 20 ppm [2] was ≥ 80% and the pest or weed control at 200 ppm [3] was ≥ 80%.
In the case of `O=C(NCc1ccc(-c2noc(C(F)(F)F)n2)cn1)c1ccccc1Cl` [Compound 1.44, 2-chloro-N-[[5-[5-(trifluoromethyl)-1,2,4-oxadiazol-3-yl]-2-pyridyl]methyl]benzamide], the pest or weed control at 200 ppm [1] was ≥ 80%, the inhibition of growth at 20 ppm [2] was ≥ 80% and the pest or weed control at 200 ppm [3] was ≥ 80%.
In the case of `CC1(C(=O)NCc2ccc(-c3noc(C(F)(F)F)n3)c(F)c2F)COC1` [Compound 1.85, N-[[2,3-difluoro-4-[5-(trifluoromethyl)-1,2,4-oxadiazol-3-yl]phenyl]methyl]-3-methyl-oxetane-3-carboxamide], the pest or weed control at 200 ppm [1] was ≥ 80%, the inhibition of growth at 20 ppm [2] was ≥ 80% and the pest or weed control at 200 ppm [3] was ≥ 80%.
With `O=C(NCc1ccc(-c2noc(C(F)(F)F)n2)cn1)C1CCCO1` (centres unmarked) [Compound 1.46, N-[[5-[5-(trifluoromethyl)-1,2,4-oxadiazol-3-yl]-2-pyridyl]methyl]tetrahydrofuran-2-carboxamide] the pest or weed control at 200 ppm [1] was ≥ 80%, the inhibition of growth at 20 ppm [2] was ≥ 80% and the pest or weed control at 200 ppm [3] was ≥ 80%.
For `O=C(NCc1ccc(-c2noc(C(F)(F)F)n2)cc1Cl)C1CCCO1` (centres unmarked) [Compound 1.50, N-[[2-chloro-4-[5-(trifluoromethyl)-1,2,4-oxadiazol-3-yl]phenyl]methyl]tetrahydrofuran-2-carboxamide], the pest or weed control at 200 ppm [1] was ≥ 80%, the inhibition of growth at 20 ppm [2] was ≥ 80% and the pest or weed control at 200 ppm [3] was ≥ 80%.
With `O=C(NCc1ccc(-c2noc(C(F)(F)F)n2)cc1F)C1CC1` [Compound 1.47, N-[[2-fluoro-4-[5-(trifluoromethyl)-1,2,4-oxadiazol-3-yl]phenyl]methyl] cyclopropanecarboxamide] the pest or weed control at 200 ppm [1] was ≥ 80%, the inhibition of growth at 20 ppm [2] was ≥ 80% and the pest or weed control at 200 ppm [3] was ≥ 80%.
With `O=C(NCc1ccc(-c2noc(C(F)(F)F)n2)c(F)c1F)C1CCOC1` (centres unmarked) [Compound 1.83, N-[[2,3-difluoro-4-[5-(trifluoromethyl)-1,2,4-oxadiazol-3-yl]phenyl]methyl] tetrahydrofuran-3-carboxamide] the pest or weed control at 200 ppm [1] was ≥ 80%, the inhibition of growth at 20 ppm [2] was ≥ 80% and the pest or weed control at 200 ppm [3] was ≥ 80%.
For `O=C(NCc1ccc(-c2noc(C(F)(F)F)n2)cn1)C1CCC1` [Compound 1.88, N-[[5-[5-(trifluoromethyl)-1,2,4-oxadiazol-3-yl]-2-pyridyl]methyl] cyclobutanecarboxamide], the pest or weed control at 200 ppm [1] was ≥ 80%, the inhibition of growth at 20 ppm [2] was ≥ 80% and the pest or weed control at 200 ppm [3] was ≥ 80%.
For `Cc1cc(C(=O)NCc2ccc(-c3noc(C(F)(F)F)n3)cc2)c(C)o1` [Compound 1.41, 2,5-dimethyl-N-[[4-[5-(trifluoromethyl)-1,2,4-oxadiazol-3-yl]phenyl]methyl]furan-3-carboxamide], the pest or weed control at 200 ppm [1] was ≥ 80% and the pest or weed control at 200 ppm [3] was ≥ 80%.
In the case of `CC1(C(=O)NCc2ccc(-c3noc(C(F)(F)F)n3)cc2F)COC1` [Compound 1.71, N-[[2-fluoro-4-[5-(trifluoromethyl)-1,2,4-oxadiazol-3-yl]phenyl]methyl]-3-methyl-oxetane-3-carboxamide], the pest or weed control at 200 ppm [1] was ≥ 80%, the inhibition of growth at 20 ppm [2] was ≥ 80% and the pest or weed control at 200 ppm [3] was ≥ 80%.
With `O=C(NCc1ccc(-c2noc(C(F)(F)F)n2)cc1F)C1CCOC1` (centres unmarked) [Compound 1.70, N-[[2-fluoro-4-[5-(trifluoromethyl)-1,2,4-oxadiazol-3-yl]phenyl]methyl] tetrahydrofuran-3-carboxamide] the pest or weed control at 200 ppm [1] was ≥ 80%, the inhibition of growth at 20 ppm [2] was ≥ 80% and the pest or weed control at 200 ppm [3] was ≥ 80%.
For `O=C(NCc1ccc(-c2noc(C(F)(F)F)n2)c(F)c1)C1CCOC1` (centres unmarked) [Compound 1.68, N-[[3-fluoro-4-[5-(trifluoromethyl)-1,2,4-oxadiazol-3-yl]phenyl]methyl] tetrahydrofuran-3-carboxamide], the pest or weed control at 200 ppm [1] was ≥ 80%, the inhibition of growth at 20 ppm [2] was ≥ 80% and the pest or weed control at 200 ppm [3] was ≥ 80%.
With `O=C(NCc1ccc(-c2noc(C(F)(F)F)n2)cc1F)C1CCC1` [Compound 1.63, N-[[2-fluoro-4-[5-(trifluoromethyl)-1,2,4-oxadiazol-3-yl]phenyl]methyl] cyclobutanecarboxamide] the pest or weed control at 200 ppm [1] was ≥ 80%, the inhibition of growth at 20 ppm [2] was ≥ 80% and the pest or weed control at 200 ppm [3] was ≥ 80%.
For `O=C(NCc1ccc(-c2noc(C(F)(F)F)n2)cn1)C1CC1` [Compound 1.45, N-[[5-[5-(trifluoromethyl)-1,2,4-oxadiazol-3-yl]-2-pyridyl]methyl] cyclopropanecarboxamide], the pest or weed control at 200 ppm [1] was ≥ 80%, the inhibition of growth at 20 ppm [2] was ≥ 80% and the pest or weed control at 200 ppm [3] was ≥ 80%.
For `O=C(CC1CC1)NCc1ccc(-c2noc(C(F)(F)F)n2)cn1` [Compound 1.87, 2-cyclopropyl-N-[[5-[5-(trifluoromethyl)-1,2,4-oxadiazol-3-yl]-2-pyridyl]methyl]acetamide], the pest or weed control at 200 ppm [1] was ≥ 80%, the inhibition of growth at 20 ppm [2] was ≥ 80% and the pest or weed control at 200 ppm [3] was ≥ 80%.
